# Reference: the supplement of paper PMC10307832
# What was measured:
# Assay in all cases: relative viability (nuclei count vs DMSO), 5 days (fraction); higher = more cells survive
# [1] = compound: CN1CCC(CC1)OC2=CC(=C(C=C2)NC3=NC=C4C(=N3)N(C(=O)N4C)C5CCCC5)OC [AZ3146] + CC1(C)CCC(c2ccc(Cl)cc2)=C(CN2CCN(c3ccc(C(=O)NS(=O)(=O)c4ccc(N[C@H](CCN5CCOCC5)CSc5ccccc5)c(S(=O)(=O)C(F)(F)F)c4)cc3)CC2)C1 [Navitoclax] (partner 0.5 µM)
# In short: (§1)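 Relative viability equals treated-well nuclei counts divided by vehicle-well nuclei counts. Counts came from 4× images of lung cancer cell lines grown in 1536-well plates for 5 days after pin-tool dosing on the day after seeding. Dosing used one drug alone or a fixed anchor-drug dose plus five library-drug doses (not always all listed) in √10 steps, and values are medians of duplicate plates.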
# [2] = compound: CCOC(=O)CCNc1cc(N2CCc3ccccc3CC2)nc(-c2ccccn2)n1 [GSK-J4] + N=C(N)NC(=N)NCCc1ccccc1 [Phenformin] (partner 250 µM)
# In short: as §1
# [3] = compound: CCOC(=O)CCNc1cc(N2CCc3ccccc3CC2)nc(-c2ccccn2)n1 [GSK-J4] + CC(=O)Nc1cccc(-n2c(=O)n(C3CC3)c(=O)c3c(Nc4ccc(I)cc4F)n(C)c(=O)c(C)c32)c1 [Trametinib] (partner 0.02 µM)
# In short: as §1
# [4] = compound: CCOC(=O)CCNc1cc(N2CCc3ccccc3CC2)nc(-c2ccccn2)n1 [GSK-J4] + Nc1ncn([C@H]2C[C@H](O)[C@@H](CO)O2)c(=O)n1 [Decitabine] (partner 2 µM)
# In short: as §1
Cell Line,relative viability ([1]; first compound 0.08 µM),relative viability ([1]; first compound 0.253 µM),relative viability ([1]; first compound 0.8 µM),relative viability ([1]; first compound 2.53 µM),relative viability ([1]; first compound 8 µM),relative viability ([2]; first compound 0.5 µM),relative viability ([2]; first compound 1.581 µM),relative viability ([2]; first compound 5 µM),relative viability ([2]; first compound 15.81 µM),relative viability ([2]; first compound 50 µM),relative viability ([3]; first compound 0.5 µM),relative viability ([3]; first compound 1.581 µM),relative viability ([3]; first compound 5 µM),relative viability ([3]; first compound 15.81 µM),relative viability ([3]; first compound 50 µM),relative viability ([4]; first compound 0.5 µM),relative viability ([4]; first compound 1.581 µM),relative viability ([4]; first compound 5 µM),relative viability ([4]; first compound 15.81 µM),relative viability ([4]; first compound 50 µM)
EPLC-272H,0.985,0.98,1.05,1.37,1.19,0.347,0.24,0.192,0.3,0.154,0.328,0.251,0.325,0.272,0.232,0.408,0.33,0.448,0.339,0.308
NCI-H1437,1.02,1.09,1.07,1.13,1.14,0.319,0.263,0.308,0.371,0.25,0.478,0.444,0.553,0.491,0.29,0.574,0.363,0.564,0.552,0.358
EKVX,0.817,0.907,0.898,1.02,1.16,0.252,0.213,0.236,0.177,0.237,0.337,–,0.515,0.307,0.21,0.297,–,0.355,0.324,0.299
NCI-H3122,1.05,0.985,1.03,1,1.03,0.37,–,0.305,0.289,0.264,0.223,0.266,0.222,0.273,0.193,0.476,0.459,0.454,0.345,0.415
NCI-H2023,0.887,1.08,1.06,1.04,0.652,0.441,–,0.395,0.35,0.342,0.559,0.591,0.59,0.475,0.431,0.212,0.195,0.209,0.174,0.195
NCI-H460,1.1,1.21,1.14,1.08,0.298,0.515,0.365,0.361,0.472,0.398,0.258,–,0.143,0.0717,0.0851,0.444,–,0.411,0.429,0.47
PC-3 [JPC-3],0.679,0.836,0.802,0.797,0.85,0.481,0.48,0.521,0.5,0.488,0.783,0.551,0.598,0.647,0.64,0.883,0.735,0.801,0.876,0.781
